Patent US6605589B1, “Cathepsin inhibitors in cancer treatment” (Parker Hughes Institute, priority 2000, dated 2003)

Columns and labels:
Format in all cases: cell-based, human
U373 (glioblastoma) = assay: Quantitative flow cytometric apoptosis detection assay (MC540/PI); details: 0 to 100 μM, FIGS. 1-3
Procedure: (§1) Quantitative flow cytometric apoptosis detection assays were performed on BT-20 (breast cancer), PC-3 (prostate cancer), U373 (glioblastoma), SQ20B (squamous cell carcinoma), HeLa (cervix cancer), and DU145 (prostate cancer). Just prior to the assay, one mg/ml stock solutions of MC540 (Sigma, St. Louis, Mo.) and PI (Sigma, St. Louis, Mo.) were filtered through a 0.22 μm filter and stored at 4° C. in the dark. CATI-1 treated cell lines was harvested, and 1×10^6 cells suspended and stained with 5 μg/ml MC540 and 10 μg/ml propidium iodide (PI) (Uckun et al. (1996) Science, 273: 1096-1100) at 4° C. in the dark for 24 hours. Stained cells were analyzed with a FACStar Plus flow cytometer (Becton Dickinson, San Jose, Calif.) using the 488-nm excitation from an argon laser. MC540 and PI emissions were split with a 600-nm short pass diachronic mirror; a 575-nm band pass filter was placed in front of one photomultiplier tube to measure MC540 emission, and 635-nm band pass filter was used for PI emission. In each experiment approximately 10,000 cells were analyzed by FACS and the percentage of cells at early (MC540 fluorescence only) and advanced (dual MC540 plus PI fluorescence) stages of apoptosis obtained.

HeLa (cervix cancer) = assay: as above; details: 0 to 100 μM, FIGS. 1-3
Procedure: as §1

PC-3 (prostate cancer) = assay: as above; details: 0 to 100 μM, FIGS. 1-3
Procedure: as §1

[1] = tested on: SQ20B (squamous cell carcinoma); assay: as above; details: 0 to 100 μM, FIGS. 1-3
Procedure: as §1

BT-20 (breast cancer) [2] = assay: as above; details: 0 to 100 μM, FIGS. 1-3
Procedure: as §1

DU145 (prostate cancer) = assay: as above; details: 0 to 100 μM, FIGS. 1-3
Procedure: as §1

[3] = tested on: all tested cancer cell lines; assay: Cytometric apoptosis detection assays, FIG. 2; details: FIG. 2 (SQ-20B, HeLa, PC-3, BT-20)
Procedure: The percentages indicate the fraction of cells at an early stage of apoptosis (lower right quadrant), as measured by single MC540 fluorescence, and the fraction of cells at an advanced stage of apoptosis (upper right quadrant).
as §1, with “MC540 and PI emissions were split with a 600-nm short pass diachronic mirror; a 575-nm band pass filter was placed in front of one photomultiplier tube to measure MC540 emission, and 635-nm band pass filter was used for PI emission.” left out

RAMOS (NHL) = assay: In vitro clonogenic assay; details: for %, inhibition / Mean no, of colonies: 24 hours
Procedure: (§2) In vitro clonogenic assays were carried out to determine the cytotoxic activity of the cathepsin inhibitor I (CATI-1) (Z-Phe-Gly-NHO-Bz) against cancer cells. The cancer cell lines used in the assay were U373 (glioblastoma), BT-20 (breast cancer), SQ20B (squamous cell carcinoma), RS4;11 (pro-B ALL), ALL-1 (pre-pre-B ALL), KM-3, MOLT-3 (T-ALL), JURKAT (T-ALL), K-562 (CML), HL-60 (AML), DAUDI (NHL), RAMOS (NHL) and RAJI (NHL). Each cell line was treated under several concentrations of CATI-1 for 24 hours, washed with serum free medium and resuspended in clonogenic medium having 10% fetal bovine serum and 0.9% methylcellulose. Resuspended cells were plated in duplicate 35-mm Petri dishes at 10,000 to 20,000 cells per dish and cultured at 37° C. in a humidified 5% CO2 atmosphere for 5 to 7 days.
(§3) Images of colonies in each dish were taken by a digital camera (Princeton Instruments, Inc.) linked to a microscope (Nikon Diaphot 200). Colony numbers were determined using an inverted phase microscope and percent inhibition of colony formation determined using the formula:
(§4) % inhibition=(1−(colony number in test sample/colony number in control sample))×100.

U373 (brain tumor) = assay: In vitro clonogenic assay; details: 24 hours
Procedure: as §2, §3, §4

DAUDI (NHL) = assay: In vitro clonogenic assay; details: CATI-1 10 uM, 24 hours
Procedure: as §2, §3, §4

SQ20B (neck cancer) = assay: In vitro clonogenic assay; details: 24 hours
Procedure: as §2, §3, §4

JURKAT (T-ALL) = assay: In vitro clonogenic assay; details: for %, inhibition / Mean no, of colonies: 24 hours
Procedure: as §2, §3, §4

BT-20 (breast cancer) [4] = assay: In vitro clonogenic assay; details: 24 hours
Procedure: as §2, §3, §4

KM-3 (pre-B ALL) = assay: In vitro clonogenic assay; details: 24 hours
Procedure: as §2, §3, §4

MOLT-3 (T-ALL) = assay: In vitro clonogenic assay; details: for %, inhibition / Mean no, of colonies: 24 hours
Procedure: as §2, §3, §4

RS4;11 (pro-B ALL) = assay: In vitro clonogenic assay; details: for %, inhibition / Mean no, of colonies: 24 hours
Procedure: as §2, §3, §4

ALL-1 (pre-pre B ALL) = assay: In vitro clonogenic assay; details: for %, inhibition / Mean no, of colonies: 24 hours
Procedure: as §2, §3, §4

K-562 (CML) = assay: In vitro clonogenic assay; details: for %, inhibition / Mean no, of colonies: 24 hours
Procedure: as §2, §3, §4

RAJI (NHL) = assay: In vitro clonogenic assay; details: for %, inhibition / Mean no, of colonies: 24 hours
Procedure: as §2, §3, §4

HL-60 (AML) = assay: In vitro clonogenic assay; details: CATI-1 10 uM, 24 hours
Procedure: as §2, §3, §4

BT-20 cells = assay: TUNEL assay (DNA cleavage); details: 50 μM and 100 μM CATI-1, FIG. 3
Procedure: (§5) DNA cleavage as an indicator of apoptosis was determined using the in situ terminal deoxynucleotidyl transferase (TdT)-mediated dUTP nick-end-labeling method (TUNEL assay) of Boehringer Mannheim (Cell Death Detection Kit) as described in Zhu et al. (1999) Clin. Can. Res., 5:355-360. Briefly, CATI-1 treated cells and control cells were harvested and resuspended in phosphate-buffered saline (PBS) at a density of 5×10^6 cells/ml. Fifty μl of each cell suspension was placed into a PAP Pen (Zymed Laboratories Inc., South San Francisco, Calif.)-circled area on Superfrost/Plus slide (Fisher Scientific, Pittsburgh, Pa.) that was coated for cell adhesion. Cells were allowed to adhere to the slide for 10 minutes, washed with PBS and fixed with a 4% paraformadehyde in PBS solution for 20 minutes. After washing the slides twice with PBS, the cells were permeabilized by treatment with 100 μl of 20 mM SDS in PBS for 10 minutes. […] However, non-apoptotic cells incorporate only insignificant amounts of FITC-labeled dUTP due to the lack of exposed 3′-hydroxyl ends in intact DNA and consequently have much less green fluorescence than apoptotic cells. DNA bound PI emits strong red nuclear fluorescence from all the cells.

SQ20B cells = assay: TUNEL assay (DNA cleavage); details: 50 μM and 100 μM CATI-1, FIG. 3
Procedure: as §5

K562 cells = assay: Flow cytometric apoptosis detection in p53 deficient cells; details: K-562, p53 deficient
Procedure: as §1
(§6) Effects of CATI-1 were investigated on a lung squamous carcinoma cell line, NCI-H520 cells, and a chronic myeloid leukemia cell line, K562 cells.

NCI-H520 cells = assay: as above
Procedure: as §1, §6

[5] = tested on: all tested cell lines, solid and blood cell; assay: In vitro clonogenic assay, all tested cell lines; details: JURKAT, KM3, DAUDI, RAJI (BAX deficient)
Procedure: as §2, §3
% inhibition=(1−(colony number in test sample/colony number in control sample))×100. […]

[6] = read-out: IC50 (colony formation)

## O=C(CNC(=O)[C@H](Cc1ccccc1)NC(=O)OCc1ccccc1)NOC(=O)c1ccccc1 [CATI-1, Z-Phe-Gly-NHO-Bz]
U373 (glioblastoma)
  induction of apoptosis: induces apoptosis
HeLa (cervix cancer)
  induction of apoptosis: induces apoptosis
PC-3 (prostate cancer)
  induction of apoptosis: induces apoptosis
[1]
  induction of apoptosis: induces apoptosis
BT-20 (breast cancer) [2]
  induction of apoptosis: induces apoptosis
DU145 (prostate cancer)
  induction of apoptosis: induces apoptosis
[3]
  induction of apoptosis: induced apoptosis
RAMOS (NHL); CATI-1 10 uM
  %, inhibition: 47.1%
  Mean no, of colonies: 1442 (1344, 1540)
RAMOS (NHL); CATI-1 20 uM
  %, inhibition: 78.2%
  Mean no, of colonies: 594 (660, 528)
RAMOS (NHL); CATI-1 35 uM
  %, inhibition: 100%
  Mean no, of colonies: 0 (0, 0)
RAMOS (NHL); [6]
  IC50: 10.1 µM
U373 (brain tumor); CATI-1 30 uM
  %, inhibition: 97%
  Mean no, of colonies: 76 (84, 67)
U373 (brain tumor); CATI-1 50 uM
  %, inhibition: 100%
  Mean no, of colonies: 0
DAUDI (NHL)
  %, inhibition: 100%
  Mean no, of colonies: 0 (0, 0)
SQ20B (neck cancer); CATI-1 50 uM
  %, inhibition: 40%
  Mean no, of colonies: 1838 (1732, 1944)
SQ20B (neck cancer); CATI-1 100 uM
  %, inhibition: 90%
  Mean no, of colonies: 306 (280, 332)
JURKAT (T-ALL); CATI-1 10 uM
  %, inhibition: 10.0%
  Mean no, of colonies: 5110 (5260, 4960)
JURKAT (T-ALL); CATI-1 20 uM
  %, inhibition: 98.9%
  Mean no, of colonies: 64 (40, 88)
JURKAT (T-ALL); CATI-1 35 uM
  %, inhibition: 100%
  Mean no, of colonies: 0 (0, 0)
JURKAT (T-ALL); [6]
  IC50: 14.5 µM
BT-20 (breast cancer) [4]; CATI-1 50 uM
  %, inhibition: 95%
  Mean no, of colonies: 177 (154, 200)
BT-20 (breast cancer) [4]; CATI-1 100 uM
  %, inhibition: 100%
  Mean no, of colonies: 0
KM-3 (pre-B ALL); CATI-1 10 uM
  %, inhibition: 79.2%
  Mean no, of colonies: 578 (520, 636)
KM-3 (pre-B ALL); CATI-1 20 uM
  %, inhibition: 100%
  Mean no, of colonies: 0 (0, 0)
MOLT-3 (T-ALL); CATI-1 10 uM
  %, inhibition: 90.8%
  Mean no, of colonies: 194 (124, 264)
MOLT-3 (T-ALL); CATI-1 20 uM
  %, inhibition: 99.1%
  Mean no, of colonies: 18 (16, 20)
MOLT-3 (T-ALL); CATI-1 35 uM
  %, inhibition: 100%
  Mean no, of colonies: 0 (0, 0)
MOLT-3 (T-ALL); [6]
  IC50: 5.5 µM
RS4;11 (pro-B ALL); CATI-1 10 uM
  %, inhibition: 10.6%
  Mean no, of colonies: 2676 (2160, 3192)
RS4;11 (pro-B ALL); CATI-1 20 uM
  %, inhibition: 96.8%
  Mean no, of colonies: 96 (116, 76)
RS4;11 (pro-B ALL); CATI-1 35 uM
  %, inhibition: 100%
  Mean no, of colonies: 0 (0, 0)
RS4;11 (pro-B ALL); [6]
  IC50: 14.6 µM
ALL-1 (pre-pre B ALL); CATI-1 10 uM
  %, inhibition: 80.4%
  Mean no, of colonies: 338 (348, 328)
ALL-1 (pre-pre B ALL); CATI-1 20 uM
  %, inhibition: 99.6%
  Mean no, of colonies: 7 (6, 8)
ALL-1 (pre-pre B ALL); CATI-1 35 uM
  %, inhibition: 100%
  Mean no, of colonies: 0 (0, 0)
ALL-1 (pre-pre B ALL); [6]
  IC50: 6.2 µM
K-562 (CML); CATI-1 10 uM
  %, inhibition: 19.0%
  Mean no, of colonies: 3806 (3980, 3632)
K-562 (CML); CATI-1 20 uM
  %, inhibition: 76.9%
  Mean no, of colonies: 1086 (1196, 976)
K-562 (CML); CATI-1 35 uM
  %, inhibition: 99.8%
  Mean no, of colonies: 10 (12, 8)
K-562 (CML); [6]
  IC50: 15.4 µM
RAJI (NHL); CATI-1 10 uM
  %, inhibition: 86.5%
  Mean no, of colonies: 168 (124, 212)
RAJI (NHL); CATI-1 20 uM
  %, inhibition: 97.4%
  Mean no, of colonies: 32 (40, 24)
RAJI (NHL); CATI-1 35 uM
  %, inhibition: 100%
  Mean no, of colonies: 0 (0, 0)
RAJI (NHL); [6]
  IC50: 5.8 µM
HL-60 (AML)
  %, inhibition: 100%
  Mean no, of colonies: 0 (0, 0)
BT-20 cells
  DNA fragmentation (TUNEL): nuclear green fluorescence consistent with DNA fragmentation
SQ20B cells
  DNA fragmentation (TUNEL): nuclear green fluorescence consistent with DNA fragmentation
K562 cells
  EC50: ~20 µM
NCI-H520 cells
  EC50: 55 µM
[5]
  susceptibility of BAX deficient cell lines to CATI-1: highly susceptible
